# Reference: patent publication US12158464B2, “Methods for modeling disease tissue using three-dimensional tissue systems” (priority 2013, dated 2024)
# How the values were obtained:
# [1] = system: hESC-derived CMs 3D tissues; type: cell-based, human
# Procedure: Alternatively, to measure the force generated by the 3D engineered cardiac tissues, a bioreactor consisting of a PDMS tissue chamber capable of housing 8 micotissues was employed. […] Briefly, each well of the PDMS chamber had two posts which served as anchoring points for each cardiac tissue during gel compaction. Furthermore, by tracking a post's deflection, the force of contraction a cardiac tissue generated was determined. Cardiac tissues underwent 7 days of pre-culture followed by 7 days of treatment with endothelin-1, angiotensin II or isoproterenol. After the treatment, the contractile force of each cardiac tissue was determined by video recording, one at a time, the top surface of a post for each cardiac tissue while being paced at 0.5 or 1 Hz using CellSens software (Olympus). Each video was then exported as a series of Tiff images and opened in ImageJ. […] Using the method of superposition for a cantilever beam-partial uniform deflection, a point force was calculated and then normalized to the tissues cross sectional area (assumed circular) to determine the cardiac force per area.
# [2] = system: hESC-CM biowires (Hes2); type: cell-based, human
# Procedure: After preculture for 7 days, biowires were randomly transferred to 6-well plates and cultured in StemPro-34 media in the absence or presence of Isoproterenol (100 nM), Angiotensin II (200 nM [17]) or Endothelin-1 (150 nM)(Sigma) for 7 days. This protocol was chosen to replicate the chronic treatment of mice as described. […] Isolated single cells were seeded on Matrigel-coated glass cover slips before cell area and calcium transient measurements were performed. Immunostaining and Fluorescence Microscopy. Immunostaining was performed using the following antibodies: mouse anti-cTNT (1:100, Thermo Scientific; MS-295-P1), mouse anti-α-actinin (1:200, Abcam, ab9465), anti-mouse-Alexa Fluor 488 (1:400, Invitrogen, A21202), anti-rabbit-TRITC (1:400, Invitrogen, 81-6114). DAPI was used to counterstain nuclei. Phalloidin Alexa Fluor 660 (1:1000, Invitrogen, A22285) was used to detect actin fibers. The stained cells were visualized using a fluorescence microscope (Leica CTR6000) and images captured using the Leica Application Suite software. For confocal microscopy cells were visualized using a fluorescence confocal microscope (Zeiss LSM-510). Transmission Electron Microscopy (TEM). Tissue was fixed with 4% Paraformaldehyde, 1% Glutaraldehyde in 0.1 M PBS for at least 1 hr and washed 3 times with PBS pH 7.2. Post-fixation was done with 1% Osmium Tetraoxide in 0.1 M PBS, pH 7.2 for 1 hr and dehydrated using ethanol series from 25 to 100%. Tissue was infiltrated using Epon resin and polymerized in plastic dishes at 40° C. for 48 hr. Tissue was stained with Uranyl Acetate and Lead Citrate after sectioning. Imaging was performed at Hitachi H-7000 transmission electron microscope.
# [3] = system: human cardiac tissue strands (hESC, Hes2 derived cardiomyocytes); experiment: Biorod drug testing: tissue beating pattern and contractile force by polymer wire deflection; type: cell-based; details: for response of human cardiac tissues to well-known drugs: summary statement
# Procedure: Cardiomyocytes were derived from human embryonic stem cell lines (hESC, Hes2). Embryoid bodies (EBs) were differentiated to the cardiovascular lineage and disassociated as previously described in Device 1 Methods. Before cell seeding, micro-well surface was rinsed with 5% (w/v) Pluronic Acid (Sigma P2443) and then air dried in the bio-safety cabinet. hESC derived cardiomyocytes were suspended at 200 million/ml (unless specified otherwise) in Collagen Type I based gel (3.0 mg/ml of rat tail collagen type I (BD Biosciences) neutralized by 1N NaOH and 10×M199 media as described by the manufacturer) with the supplements of […], 1% (v/v) HEPES, 10% (v/v) Matrigel (BD Biosciences), and […]. Suspended cardiomyocytes were then seeded into the cell culture channel (2.5 μl per well). After 30 min incubation at 37° C. to induce the gelation, appropriate media were added. After seeding, cells were kept in culture for 7 days to allow collagen matrix remodeling and assembly around the wires. Cardiac tissue strands were kept in culture for up to 21 days with media change every 2-3 days. Preferably, the tissue strands should be kept in culture for at least 2 weeks to allow for maturation; however there is no limitation on the maximum culture duration. Cardiac tissue strands were seeded to observe the stability and reproducibility of tissue in long term culture. After seeding, brightfield images (see FIG. 39A for an example) of the tissue strands were taken every day (n=3 per group) using optical microscope (Olympus CKX41) and the diameters of the tissue strands at four distinct locations were analyzed with imageJ (see FIG. 39B for an example). Tissue strand lengths were also analyzed with same method.
# Tissue contractile behavior tracing and measurement was carried out. POMac is auto-fluorescent at a wide range of wavelenths; therefore the wires were imaged with a fluorescence microscope under DAPI channel (e.g. 461 nm wavelength) to trace the bending movements of the wires. The POMac is auto-fluorescent at a wide range of wavelengths, including under FITC and Tritc channels. Images were taken at 25 frames per second (fps) (see FIG. 39C). Image sequences were analyzed with ImageJ software using tracking plugin. To calculate the forces originated from cardiac tissues, beam deflection formula with uniformly distributed load in the middle section was used here. […] The engineered cardiac tissues were paced at 2 Hz frequency. From this image sequence, contraction and relaxation time of beating can be estimated. […] Tissue stretching wires can be considered uniformly distributed Load, Wo (Load per force bearing length), which can be calculated with displacement of center point of wires in image sequence, and F can be calculated as well. […] Briefly, entire beam length was L. Section of wire with tissue wrapping around it was experiencing load. Here, the load was assumed to be evenly distributed throughout this section, and Wo was load per length. […] The distance between side of the tissue and a well wall is a, which was assumed equal for both sides. The deflection at center point was y.
# Drug testing was carried out.
# [4] = system: Hes2 hESC-derived cardiomyocyte tissue strands; details: Hes2 hESC-cardiomyocyte tissue strand; DI-4-ANEPPS imaging
# Procedure: For human cardiac tissue strands, day 20 EBs generated as described above were incubated in collagenase type I (1 mg/ml; Sigma) and DNAse (1 mg/ml, CalBiochem) in Hank's Balanced Salt Solution (NaCl, 136 mM; NaHCO3, 4.16 mM; Na3PO4, 0.34 mM; KCl, 5.36 mM; KH2PO4, 0.44 mM; dextrose, 5.55 mM; HEPES, 5 mM) for 2 hr at 37° C. EBs were centrifuged (800 r.p.m., 5 min), incubated with trypsin (0.25%, Gibco) for 5 min at 37° C. and pipetted gently to dissociate the cells. After dissociation, cells were centrifuged (1,000 r.p.m., 5 min), counted and seeded at 0.5×10^6 cells/strand of 0.5 cm in length. This ratio was maintained for generation of longer tissue strands. […]
# For optical mapping, tissue strands were incubated with a voltage sensitive dye (Di-4-ANEPPS 5 μM, Invitrogen) for 20 min at 37° C. in warm Tyrode's solution (NaCl 118 mM, KCl, 4.7 mM, CaCl2 1.25 mM, MgSO4 0.6 mM, KH2PO4 1.2 mM, NaHCO3 25 mM, glucose 6 mM; oxygenated by bubbling carbogen 95% O2, 5% CO2 for at least 20 minutes shortly before use). Dye fluorescence was recorded on a MVX-10 Olympus fluorescence microscope equipped with a high-speed CMOS camera (Ultima-L, Scimedia)^29-30. […] The fluorescence was excited using a mercury arc source (X-Cite Exacte) with green filter (Olympus U-MWIG2 filter cube). […]
# [5] = system: endothelialized AngioChip human cardiac tissue; details: 10 μM perfused through built-in vasculature, within 30 min
# Procedure: Cardiac drug test. On day 7 of culture, the spontaneous contractions of the cardiac tissues were recorded as bright-field videos. […] After 30 min incubation, the spontaneous contractions of the cardiac tissues were recorded again as bright-field videos. The frequency of contraction was analyzed from the recorded videos with image J. DMSO was used to dissolve the drugs. The final concentration of DMSO in the culture media was diluted to less than 0.1% (v/v).
# [6] = system: hESC-derived cardiomyocytes (Hes2 cell line); experiment: Calcium transient measurements in single cardiomyocytes dissociated from tissue strands; type: cell-based, human
# Procedure: Calcium transient measurements were taken. Tissue strands were dissociated by incubation with collagenase and trypsin as described in detail above. The dissociated cardiomyocytes were plated onto growth factor free Matrigel (diluted 1:60 in RPMI media)-coated 25-mm microscope glass coverslips overnight. Cells were then incubated with 5 μM of fluo-4 acetoxymethyl ester (fluo-4 AM) in culture media for 2 hours at 37° C. Subsequently, cardiomyocytes were washed twice with dye-free medium and placed back into the incubator for 30 min. A laser scanning confocal microscope (Zeiss LSM 510) was used to measure the fluorescence intensity of fluo-4 AM. The coverslips containing the fluo-4 AM-loaded cardiomyocytes were moved onto a special chamber and tightly secured. Approximately 1.8-1.9 ml of culture medium was added into the chamber, which was placed on a temperature controlled-plate (37° C.) on the microscope. Fluo-4 was excited via an argon laser (488 nm) and emitted fluorescence was collected through a 505 nm emission filter. Changes in fluo-4 AM fluorescence intensity, which indicates transient fluctuation of cytosolic calcium concentration, were recorded in frame and line scan model. The images and fluorescence data were acquired through Zeiss software. The fluorescence data were analyzed with Origin 8.5 software. Fluorescence signals (F) were normalized to baseline fluorescence after loading fluo-4 AM. The rising phase of the signals was fitted by linear model while the decaying phase of the signals was fitted by ExpDecay with Offset model. Caffeine, Verapamil (Sigma) and Thapsigargin (Invitrogen) were directly added into the chamber that contained the cardiomyocytes during imaging at concentrations indicated in the figures.
# [7] = system: hESC-CM biowires (Hes2); experiment: Chronic drug exposure: ELISA of soluble BNP in conditioned media; type: cell-based, human
# Procedure: (§1) After preculture for 7 days, biowires were randomly transferred to 6-well plates and cultured in StemPro-34 media in the absence or presence of Isoproterenol (100 nM), Angiotensin II (200 nM [17]) or Endothelin-1 (150 nM)(Sigma) for 7 days. This protocol was chosen to replicate the chronic treatment of mice as described. […] Isolated single cells were seeded on Matrigel-coated glass cover slips before cell area and calcium transient measurements were performed. ELISA. Quantification of soluble BNP from the conditioned media was performed using commercially available ELISA kits.
# [8] = system: Hes2 hESC derived cardiomyocytes; type: cell-based, human; details: single cells dissociated at end of 7 days treatment, cardiac troponin T staining
# Procedure: as §1, with “performed.” for “performed. ELISA. Quantification of soluble BNP from the conditioned media was performed using commercially available ELISA kits.”
# [9] = system: hESC-CM biowires (Hes2); experiment: Chronic drug exposure of biowires: quantitative RT-PCR of fetal gene program; type: cell-based, human; details: 7 days treatment: ISO 100 nM, Et-1 150 nM, AngII 200 nM; vs untreated control
# Procedure: as §1, with “performed.” for “performed. ELISA. Quantification of soluble BNP from the conditioned media was performed using commercially available ELISA kits.”
# Quantitative RT-PCR. RT-PCR was performed as previously described. Total RNA was prepared with the High Pure RNA Isolation Kit (Roche) and treated with RNase-free DNase (Roche). RNA was reverse transcribed into cDNA using random hexamers and Oligo (dT) with SuperScript VILO (Invitrogen). RT-qPCR was performed on a LightCycler 480 (Roche) using LightCycler 480 SYBR Green I Master (Roche). Expression levels were normalized to the housekeeping genes TATA box binding protein (TBP) or Glyceraldehyde 3-phosphate dehydrogenase (GAPDH).
compound,measurement,setting,value
"CC[C@H](C)[C@H](NC(=O)[C@H](Cc1ccc(O)cc1)NC(=O)[C@@H](NC(=O)[C@H](CCCNC(=N)N)NC(=O)[C@@H](N)CC(=O)O)C(C)C)C(=O)N[C@@H](Cc1cnc[nH]1)C(=O)N1CCC[C@H]1C(=O)N[C@@H](Cc1ccccc1)C(=O)O [AngII, angiotensin II]",force of contraction,[1],significantly reduced force of contraction
same,contractile apparatus (transmission electron microscopy),[2],significant absence of distinct Z-disks and the lack of a defined sarcomere structure
Cc1cccc(CCN2CCC(C(=O)c3ccc(NS(C)(=O)=O)cc3)CC2)n1 [E4301],response of human cardiac tissues to well-known drugs,[3],responded appropriately
"CNC[C@H](O)c1ccc(O)c(O)c1 [Epinephrine, epinephrine]",spontaneous beating frequency,[4],increasing spontaneous beating frequency
same,chronotropic response (frequency of spontaneous contraction),[5],positive chronotropic response
NC[C@H](O)c1ccc(O)c(O)c1 [Norepinephrine],beating frequency,[3]; 10 μM,significant increased beating frequency
same,response of human cardiac tissues to well-known drugs,[3],responded appropriately
Cn1c(=O)c2c(ncn2C)n(C)c1=O [caffeine],effect of caffeine added post blockage of L-type Ca2+ channels,"[6]; cells from 6 Hz tissue strands, after verapamil or nifedipine",Ca^2+ release into the cytosol
same,Ca2+ transient amplitude intensity in response to caffeine,"[6]; electrically stimulated cells vs non-stimulated controls, caffeine 5 mM",significantly higher amplitude intensity
same,response of cytosolic Ca2+ to caffeine,"[6]; single cells from electrically stimulated tissue strands, 3 and 6 Hz conditions",inducing an increase in cytosolic Ca^2+
same,response of cytosolic Ca2+ to caffeine,[6]; single cells from non-stimulated control tissue strands,none of the hESC-cardiomyocytes in non-stimulated controls were responsive
C[C@H]1O[C@@H](O[C@H]2[C@@H](O)C[C@H](O[C@H]3[C@@H](O)C[C@H](O[C@H]4CC[C@@]5(C)[C@H](CC[C@@H]6[C@@H]5C[C@@H](O)[C@]5(C)[C@@H](C7=CC(=O)OC7)CC[C@]65O)C4)O[C@@H]3C)O[C@@H]2C)C[C@H](O)[C@@H]1O [digoxin],chronotropic response (frequency of spontaneous contraction),[5],negative chronotropic response
C/C=C(/C)C(=O)O[C@H]1C(C)=C2[C@H]([C@@H]1OC(=O)CCCCCCC)[C@@](C)(OC(C)=O)C[C@H](OC(=O)CCC)[C@@]1(O)[C@H]2OC(=O)[C@@]1(C)O [thapsigargin],calcium transients after blockage of SERCA,[6]; cells from 6 Hz tissue strands,cessation of calcium transients with time
COc1ccc(CCN(C)CCCC(C#N)(c2ccc(OC)c(OC)c2)C(C)C)cc1OC (stereo not drawn) [verapamil],Ca2+ transients after blockage of L-type Ca2+ channels,[6]; cells from 6 Hz tissue strands,cessation in Ca^2+ transients
endothelin-1 [Et-1],BNP in the conditioned media,[7]; chronic treatment,BNP can also be found in the conditioned media
same,increase in the secretion of BNP,"[7]; day 2 post-treatment, media conditioned for 48 h",5 fold
same,increase of BNP in the media,"[7]; day 7, media conditioned for 24 h",7 fold
same,force of contraction,[1],significantly reduced force of contraction
same,increase in cell size,[8],100%
same,ANF and BNP gene expression (fetal gene program),[9],no changes in gene expression
same,contractile apparatus (transmission electron microscopy),[2],significant absence of distinct Z-disks and the lack of a defined sarcomere structure
